The nature of the data set: gradient 5% acetonitrile 3 min, to 50% in 2 min, to 85% in 15 min, held 3 min, 100 µL/min. The following applies: column: Zorbax Extend-C18 2.1 x 50 mm; eluents: water / acetonitrile, 0.1% formic acid. Summed up: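 Retention time was recorded from adduct peaks, which were picked computationally and each inspected manually. Pure standards ran in mixtures of ~100 molecules on HPLC coupled to a quadrupole time-of-flight mass spectrometer, in positive and negative ionization mode, through a Zorbax Extend-C18 column (2.1 × 50 mm, 1.8 μm) at 100 μL/min. Eluents were water and acetonitrile, each with 0.1% formic acid.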
`CC1=C(c2cccc(Cl)c2)S(=O)(=O)N=C1N1CCCN(C(=O)C(C)C)CC1` showed an RP-LC retention time of 786 s.
For `O=C(NCc1cccs1)NCC1CC(=O)N(Cc2ccc(F)cc2)C1` (stereo not given), the RP-LC retention time stood at 656 s.
As to `CCC(C)(C)NS(=O)(=O)c1cccc(-c2nc(-c3ccc(C)cc3)no2)c1`, the RP-LC retention time is 1290 s.
As to `COc1cccc(OCC(O)CN2CCN(c3ccccc3)CC2)c1` (stereo not given), the RP-LC retention time worked out at 727 s.
Compound `Cc1ccccc1C(=O)NCCc1cn(CC(C)C)c2ncccc12` gave an RP-LC retention time of 808 s.
The compound `Cc1ccc(C)c(NC(=O)C2CCN(S(=O)(=O)c3cn(C(C)C)cn3)CC2)c1` came in with an RP-LC retention time of 767 s.
Regarding `Cn1c(C(=O)N2CCN(c3ccccn3)CC2)cc2c(-c3cccs3)nn(-c3ccccc3)c21`, the RP-LC retention time stood at 749 s.
As to `O=C(C1CCN(Cc2cnn(-c3ccccc3)c2-n2cccc2)CC1)N1CCN(c2ccccc2)CC1`, the RP-LC retention time was found to be 750 s.
Take `O=C(c1cccnc1)N1CCCCC1c1nncn1Cc1ccccc1` (stereo not given): the RP-LC retention time was found to be 620 s.
Next, `Cc1ccc(NC(=O)C2CC(=O)N(c3n[nH]c4cccc(F)c34)C2)c(C)c1` (stereo not given): 770 s.
With `O=C(Nc1ccc2c(c1)OCCO2)N1CC(c2nc(CCOCC3CC3)no2)C1`, the RP-LC retention time was determined as 754 s.
`CCCCC1CCC(C(=O)Nc2nc(-c3ccc4c(c3)NC(=O)CO4)c(C)s2)CC1` (stereo not given) returned an RP-LC retention time of 1240 s.
The same measure for `CCOC(=O)c1c(C)c(CCC(=O)N2CCC(C)CC2)n(C)c1C`: 950 s.
Compound `O=C(Nc1ccc(N2CCOCC2)cc1)C1CCCN(c2ncc(-c3ccccc3)cn2)C1` (stereo not given) displayed an RP-LC retention time of 925 s.
On to `O=C(C1CC1)N1CCC(c2noc(-c3ccccn3)n2)C1` (stereo not given), for which the RP-LC retention time is 636 s.
Take `Cc1ccc(CNC(=O)c2c(C)sc3ncnc(N4CCCCC4)c23)cc1`: the RP-LC retention time is 1070 s.
The same measure for `O=C(c1ccccn1)N1CCc2cc(-c3csc(C4CC4)n3)ccc21`: 975 s.
In turn, `COCCN1CCCCc2cc(C(=O)NC3CCS(=O)(=O)C3)sc21` (stereo not given) returned an RP-LC retention time of 734 s.
Next, `COCCN1C(=O)[C@H]2CN(Cc3cccc(Br)c3)C[C@H]2C1=O`: 656 s; `Clc1cccc(-c2nc(-c3ccc4nncn4c3)no2)c1`: 921 s.
The same measure for `O=C(CCn1cnc2cc(-c3noc(/C=C/c4ccccc4)n3)ccc21)N1CCCC1`: 792 s; for `Cc1noc(C)c1Cc1ccc(C(=O)NCc2nn(C)c3c2CN(C)CC3)o1`: 578 s.
`Cc1sc2ncnc(N3CCCC(C)C3)c2c1C(=O)Nc1cccc(F)c1C` (stereo not given) returned an RP-LC retention time of 1300 s.
With `Cc1ccc2c(Nc3ccc(CC(=O)O)cc3)c(C(=O)N3CCCCCC3)cnc2n1`, the RP-LC retention time was 595 s.
As for `CCOC(=O)c1[nH]c(C)c(C(=O)N2CCC(CC(=O)N3CCCCCC3)CC2)c1C`, the RP-LC retention time turned out to be 739 s.
`Cc1c(C(=O)c2ccccc2)c2ccccc2n1C` showed an RP-LC retention time of 1030 s.
The same measure for `CCCNC(=O)c1nc2cc(C)c(C)cc2[nH]c1=O`: 671 s; for `COc1ccc2c(c1)C1(CCN(C(=O)NC3CCCCC3)C1)C(=O)N2C` (stereo not given): 778 s.
The same measure for `CCOC(=O)c1nnc2c(-c3ccc(F)cc3)c(C)nn2c1C`: 986 s; for `O=C(Cn1ccc2ccccc21)N1CCN(c2ccc(-c3ccccn3)nn2)CC1`: 652 s; for `Cc1ccccc1-c1noc(Cn2c(=O)n(Cc3ccco3)c(=O)c3ccccc32)n1`: 1100 s.
With `Cc1ccc(-n2nc(C)c(S(=O)(=O)N3CCC(C(=O)N4CCN(C)CC4)CC3)c2C)cc1`, the RP-LC retention time came to 629 s.
The same measure for `CCn1cc(C(=O)Nc2cccc(F)c2)c2cccnc21`: 892 s; for `CCCNC(=O)C1CCN(c2cncnc2N2CCCCC2)CC1`: 620 s.
Compound `COc1ccc(CNC(=O)C2(C)Oc3cccnc3N(C(C)C)C2=O)cc1OC` (stereo not given) displayed an RP-LC retention time of 836 s.
In turn, `COCC1CN(C(=O)c2ccco2)CCC1(F)F` (stereo not given) came in with an RP-LC retention time of 759 s.
`O=C(CN1CC=C(c2cnn(-c3ccc(F)cc3)c2)CC1)N1CCN(c2ccccc2F)CC1` returned an RP-LC retention time of 748 s.
Next, `O=C(Nc1cc(F)cc(F)c1)N1CCCN(C2CCN(Cc3ccc(F)cc3)C2=O)CC1` (stereo not given): 688 s; `CS(=O)(=O)Nc1ccc(CC(=O)NC2CC2)cc1`: 585 s.
Compound `COc1ccc(-c2nnc(COc3ccc(NC(=O)c4cncc(Br)c4)cc3)o2)cc1` returned an RP-LC retention time of 893 s.
In the case of `Cc1cc(OCC(=O)N[C@H](C(=O)O)c2ccccc2)c2c3c(c(=O)oc2c1)CCCC3`, the RP-LC retention time is 879 s.
Consider `CC(Oc1ccccc1)c1nc(-c2ccc3c(c2)nnn3CCC(=O)N2CCOCC2)no1` (stereo not given), for which the RP-LC retention time turned out to be 852 s.
Compound `Cc1ccccc1-c1noc(C2CCCN2C(=O)Nc2ccccc2F)n1` (stereo not given) came in with an RP-LC retention time of 1020 s.
For the compound `O=C(c1cccc2c1CCN2C(=O)C1CC1)N1CCCCC1`, the RP-LC retention time was determined as 746 s.
The compound `CCN1C(=O)CCc2cc(NS(=O)(=O)c3ccc(C(F)(F)F)cc3)ccc21` displayed an RP-LC retention time of 858 s.
Compound `COCCNC(=O)N1CCCN(C2=NS(=O)(=O)C(c3ccc(C)cc3)=C2C)CC1` returned an RP-LC retention time of 688 s.
`COc1ccc(-c2ncc3c(n2)CCN(S(=O)(=O)c2cccc(C)c2)C3)cc1` returned an RP-LC retention time of 1070 s.
`O=C(CCC1CCN(c2cc(NC3CC3)ncn2)CC1)NCc1cccc(Cl)c1` registered an RP-LC retention time of 680 s.
For the compound `Cc1cc(N2CCN(C(=O)c3ccccc3)CC2)nc2nncn12`, the RP-LC retention time came out at 558 s.
Compound `Cc1ccc(Cn2c(=O)n(CCNC(=O)C(C)C)c3ncccc32)cc1` registered an RP-LC retention time of 769 s.
Next, `Cc1ccc(OCCC2CCNC2)cc1` (stereo not given): 646 s; `CC(C)Oc1cccnc1N(C)C1CCN(Cc2ccccc2)CC1`: 627 s; `COc1ccc(Cn2c(CO)cnc2SCC(=O)N2CCCc3ccccc32)cc1`: 702 s.
As to `CCc1ccc(Oc2cc(N3CCC(C(=O)NCc4ccc(OC)cc4)CC3)ncn2)cc1`, the RP-LC retention time came to 988 s.
Turning to `Cc1ccccc1-c1ccc(N2CCC(C(=O)Nc3cccnc3)CC2)nn1`, the RP-LC retention time came to 546 s.
With `CCOC1CCN(C(=O)NC(C)C)CC1`, the RP-LC retention time stood at 630 s.
Compound `CCOC(=O)Cn1c(C2CC(=O)N(c3ccccc3F)C2)nc2ccccc21` (stereo not given) showed an RP-LC retention time of 746 s.
The compound `COc1ccc(C)cc1NC(=O)N1C[C@H](c2nc(-c3ccncc3)no2)[C@@H](C)C1` yielded an RP-LC retention time of 876 s.
The same measure for `Cc1cc2c(=O)n(CC(=O)Nc3ccc(C(F)(F)F)cc3)ccc2s1`: 706 s; for `COc1ccccc1CNS(=O)(=O)c1ccccc1-c1nc(-c2ccc(F)cc2)no1`: 1210 s.

For the origin of these results see the METLIN SMRT retention time set (Domingo-Almenara et al. 2019).
